The values below come from PMC8457910 (Bioorganic Chemistry, 2021).

For this assay, the target named is NusA-5HB (Severe acute respiratory syndrome coronavirus 2, UniProt P0DTC2). Description: Competitive FP assays of small molecules. To be noted: IC50, 8 nM NusA-5HB, 5 nM HR2P-FL, 4% DMSO. It counts as binding, SARS-CoV-2.

Values joined by “and” are separate entries in the source; they are usually repeats but may differ in a detail not shown here. Identical values can stand only once.

The term IC50 denotes the point on the concentration scale where inhibition reaches its midpoint. `O=C(/C=C/c1ccc(O)c(O)c1/C=C/c1ccc(O)c(O)c1)O[C@H](Cc1ccc(O)c(O)c1)C(=O)O` [Sal-A, Salvianolic acid A]: the IC50 was 3.9 µM and ~3.9 µM. Then `O=C(O)/C=C/c1ccc(O)c(O)c1` [caffeic acid, Caffeic acid], with 638 µM and ~638 µM.
